Measurements reported in patent publication US20180312651A1, “FOAMS AND ARTICLES MADE FROM FOAMS CONTAINING HCFO OR HFO BLOWING AGENTS” (HONEYWELL INTERNATIONAL INC., priority 2011, published 2018).
Counter-ions that a name gives are not always drawn. Like-named read-outs stand apart in the source and are kept apart here.

Columns and labels:
[1] = cited from earlier work
[2] = manufacturers' literature; cited from earlier work
PEL = conditions: Honeywell internal PEL
Source text: Table 1 and Table 2, below, list the properties of 1233zd(E) and 1234ze(E) compared to other commonly used blowing agents.
Table 3A and Table 3B list the properties of 1233zd(E) compared to some non-flammable blowing agents, such as 245fa and 141b, and various flammable blowing agents, such as methyl formate and hydrocarbons. […] Note that the global warming potential (GWP) of 1233zd(E) of less than 5 is the lowest among all blowing agents compared. Moreover, the GWP of 1233zd(E) is more than two orders of magnitude lower than that of the currently utilized 245fa, and is more than one order of magnitude lower than the present limitations in the EU F-Gas Regulation.

SMILES | LFL/UFL (Vol % in Air) [1] | PEL [2] | PEL (PEL)
CC(F)(Cl)Cl [141b, 1,1-dichloro-1-fluoroethane] | 7.6-17.7 Vol % | 500 ppm | 
CC(F)(F)Cl [142b, 1-chloro 1,1-difluoroethane] | 8.0-15.4 Vol % | 1000 ppm | 
FC(F)CC(F)(F)F [245fa, 1,1,1,3,3-pentafluoropropane] | None | 300 ppm | 
CC(F)(F)CC(F)(F)F [365mfc, 1,1,1,3,3-pentafluorobutane] | 3.6-13.3 Vol % | 1000 ppm | 
FC(F)(F)/C=C/Cl [1233zd(E), trans-1-chloro-3,3,3-trifluoropropene] | None | 300 ppm | 300^5
F/C=C/C(F)(F)F [1234ze(E), trans-1,3,3,3-tetrafluoropropene] | None | 1000 ppm | 
C1CCCC1 [C-C5, cyclopentane] | 1.5-8.7 Vol % |  | 
COC=O [Methyl Formate, methyl formate] | 5.0-23.0 Vol % | 600 ppm | 
FC(Cl)Cl [compound 22, dichlorofluoromethane] | None | 1000 ppm | 
CCC(C)C [isopentane] | 1.4-8.3 Vol % | 600 ppm | 
CCCCC [normal pentane, n-pentane] | 1.4-8.3 Vol % | 600 ppm | 
